# Laboratory results taken from patent US20220168472A1, “ENZYME-DEGRADABLE HYDROGEL FOR DELIVERY OF A PAYLOAD” (priority 2019, published 2022).
# Legend:
# [1] = tested on: rabbit corneal epithelial cells (RCEpCs); assay: PDMS stencil wound assay, RCEpCs, bolus HA; format: cell-based
# Protocol: Primary rabbit corneal epithelial cells (Cell Biologics Inc.) were cultured using a T-25 flask in epithelial cell media supplemented with insulin-transferrin-selenium, epidermal growth factor, L-glutamine, antibiotic-antimycotic solution and fetal bovine serum (Cell Biologics Inc.). Once confluence was reached, the RCEpCs were briefly rinsed with PBS and passaged with trypsin-EDTA (GIBCO, Thermo Scientific). The cells were then sub-cultured on a 24-well plate surface pre-coated with a gelatin-based coating (Cell Biologics Inc.) containing a thin, punched out poly-dimethyl siloxane (PDMS) stencil adhered to the surface. The media was changed daily until a cell monolayer was formed. The PDMS disk stencil was then carefully removed from the surface. The well was then rinsed with PBS and replaced with epithelial cell media. Images were taken daily to observe the closure of the wound and graphs were generated using GraphPad Prism 6.
# (§1) To validate the wound assays 200 kDa hyaluronic acid (151-300 kDa HA; Lifecore Biomedicals) were added to the media of both RCEpC and HCEpC PDMS wound assays. Once the wound assays were validated, the efficacy of medium sized 60 kDa HA (66-99 kDa; Lifecore Biomedicals) was investigated. Various concentrations of 60 kDa HA were dissolved in KM and added as a bolus dosage to HCEpC wound assays. The media was changed daily until full closure of the wound. Images were taken daily to observe the closure of the wound and graphs were generated using GraphPad Prism 6.
# (§2) To verify if the wound assay could provide a consistent initial wound area to two different corneal epithelial cell types, 1 mm diameter PDMS wound assays were performed with both rabbit corneal epithelial cells (RCEpCs; FIG. 20A) and human corneal epithelial cells (HCEpCs; FIG. 20B). Primary RCEpCs were initially used as they would behave similar to future in vivo rabbit studies. Healing of the wound varied between the two cell-types, with the primary RCEpC wound healing within 2 days and the HCEpC wound healing in 7 days (FIG. 20C). […] The improvement was narrowed to 21% (95.9%±6.9% wound closure) at 18.5 hours, compared to the control (74.9%±9.0%). […] HA was confirmed to be a potential drug due to its consistency among cell types, rapid ability to heal wounds, low minimum effective concentration, and cost efficiency.
# [2] = tested on: human corneal epithelial cells (HCEpCs); assay: PDMS stencil wound assay, HCEpCs, bolus HA or MMP-9; format: cell-based; conditions: for increase of wound healing rate: 0.1-0.6 mg/mL
# Protocol: HCEpCs were cultured in a T-25 flask with keratinocyte serum-free media supplemented with keratinocyte growth serum and penicillin/streptomycin (KM; Sciencell) that was changed every other day. The SV-40 immortalized HCEpCs were generously donated from a collaborator (for example, see: F. Li, M. Griffith, Z. Li, S. Tanodekaew, H. Sheardown, M. Hakim, and D. J. Carlsson, “Recruitment of multiple cell lines by collagen-synthetic copolymer matrices in corneal regeneration,” Biomaterials, vol. 26, no. 16, pp. 3093-3104, 2005 Jun. 1, doi: https://doi.org/10.1016/j.biomaterials.2004.07.063; and/or M. Griffith, R. Osborne, R. Munger, X. Xiong, C. J. Doillon, N. L. C. Laycock, M. Hakim, Y. Song, and M. A. Watsky, “Functional Human Corneal Equivalents Constructed from Cell Lines,” Science, vol. 286, no. 5447, pp. 2169-2172, 1999, doi: 10.1126/science.286.5447.2169, the entire contents of which are incorporated herein by reference). Once confluence was reached, the HCEpCs were passaged in 2 ml of TrypLE Express (GIBCO, Life Technologies, Thermo Scientific) and subcultured for the wound assay as described previously. The HCEpCs were cultured with KM until a monolayer had formed. Wound assays were conducted as described above for RCEpCs. The well was then rinsed with PBS and replaced with KM. Images were taken daily to observe the closure of the wound and graphs were generated using GraphPad Prism 6.
# as §1, §2
# Most literature assesses the effects of native high molecular weight HA and oligomer HA on epithelial wound healing. To obtain an ideal MMP-9 controlled release profile, the influence of mid-size 60 kDa HA on corneal wound healing was investigated. PDMS-stencil wound assays were conducted using 0.05, 0.1, 0.3, 0.6, or 1.0 mg/ml of 60 kDa HA treatments daily (FIG. 21A). A 250 ng/ml MMP-9 sample was included to observe the effects of the enzyme on wound healing, similar to an in vivo environment.
substance,measurement,setting,value
hyaluronic acid [HA],improvement in wound healing relative to the control,"[1]; 0.45 mg/ml HA, 4 hours",149%
same,wound closure,"[1]; 0.45 mg/ml HA, 4 hours",36.4%±14.6%
same,improvement in wound healing relative to the control,"[1]; 0.45 mg/ml HA, 18.5 hours",21%
same,wound closure,"[1]; 0.45 mg/ml HA, 18.5 hours",95.9%±6.9%
same,improvement in wound healing relative to the control,"[1]; 0.75 mg/ml HA, 12 hours",35%
same,wound closure,"[1]; 0.75 mg/ml HA, 12 hours",64.9%±13.6%
same,improvement in wound healing relative to the control,"[2]; 0.45 mg/ml HA, 33 hours",31%
same,wound closure,"[2]; 0.45 mg/ml HA, 33 hours",42.8%±7.2%
same,improvement in wound healing relative to the control,"[2]; 0.45 mg/ml HA, 59.5 hours",19%
same,wound closure,"[2]; 0.45 mg/ml HA, 59.5 hours",81.8%±7.6%
same,improvement in wound healing relative to the control,"[2]; 0.75 mg/ml HA, 18.5 hours",58%
same,wound closure,"[2]; 0.75 mg/ml HA, 18.5 hours",27.5%±7.1%
same,improvement in wound healing relative to the control,"[2]; 0.75 mg/ml HA, 59.5 hours",26%
same,wound closure,"[2]; 0.75 mg/ml HA, 59.5 hours",86.5%±4.2%
hyaluronic acid [60 kDa HA],increase of wound healing rate,[2]; 60 hours,24%
same,increase of wound healing rate,[2]; first 24 hours,40%
same,wound healing compared to the control,"[2]; 0.3, 0.6, and 0.05 mg/ml daily",healed rapidly
same,wound healing compared to the control,"[2]; the other HA samples (of 0.05, 0.1, 0.3, 0.6, 1.0 mg/ml) daily",slowed wound healing compared to the control
